This test deals with T1, PARP15 (Homo sapiens, UniProt Q460N3).
T1 sequence (Q460N3 1-678): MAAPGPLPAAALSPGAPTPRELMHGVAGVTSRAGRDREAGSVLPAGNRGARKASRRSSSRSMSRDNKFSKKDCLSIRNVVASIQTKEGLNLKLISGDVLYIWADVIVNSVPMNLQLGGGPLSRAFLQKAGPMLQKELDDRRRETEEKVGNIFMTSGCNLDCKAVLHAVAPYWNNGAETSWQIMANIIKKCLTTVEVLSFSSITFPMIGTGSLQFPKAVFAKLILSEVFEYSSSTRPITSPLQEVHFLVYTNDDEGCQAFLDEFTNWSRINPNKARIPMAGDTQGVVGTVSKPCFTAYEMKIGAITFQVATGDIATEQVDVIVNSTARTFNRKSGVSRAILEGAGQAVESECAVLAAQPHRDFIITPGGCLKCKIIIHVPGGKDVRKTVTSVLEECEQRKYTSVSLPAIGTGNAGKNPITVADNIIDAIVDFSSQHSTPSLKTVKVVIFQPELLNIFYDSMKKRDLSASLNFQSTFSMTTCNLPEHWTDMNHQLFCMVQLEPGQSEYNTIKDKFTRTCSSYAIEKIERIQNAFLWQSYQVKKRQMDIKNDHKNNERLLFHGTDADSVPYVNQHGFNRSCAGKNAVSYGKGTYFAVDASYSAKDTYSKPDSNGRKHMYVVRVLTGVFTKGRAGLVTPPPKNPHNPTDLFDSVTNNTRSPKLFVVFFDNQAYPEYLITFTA
The experiment in a line: biochemical.

Molecules are shown by their SMILES.

With `Nc1nnc2sc3cc(O)ccc3n12` [Compound 109, 3-Amino[1,2,4]triazolo[3,4-b][1,3]benzothiazol-7-ol], the midpoint of inhibition, the IC50, lay at 680 nM.

For the origin of these results see patent US20250177359A1, “COMPOUNDS FOR USE IN THE TREATMENT OF CANCER AND INFLAMMATORY CONDITIONS” (priority 2022, published 2025).
